A short description of series [1]: Liver Microsome Stability Assay (mouse). The note with it: mouse liver microsomes, with NADPH, 1.0 uM compound. (Liver microsomes are a subcellular fraction often used to study metabolism.)
Method: (§3) Stability of a compound was assessed in the presence of liver microsomes from various sources—mouse, rat, monkey and human liver microsomes. 1.0 uM compound, 0.4% DMSO in 0.1 M Potassium Phosphate with 1.0 mg/mL liver microsomes, were incubated at 37° C. with or without 1 mM NADPH. The samples were quenched at 0, and 30 minutes.
In series [2] the test system is multiple myeloma cell line NCI-H929. The experiment in a line: H929 Cell Viability Assay. The format is cell-based, human. The note with it: NCI-H929 cells, Celltiter-Glo. On the procedure: The human multiple myeloma cell line NCI-H929 was cultured in Advanced RPMI 1640 media (Gibco®) supplemented with 6% fetal bovine serum, 2 mM Glutamine, and 1× Penicillin/Streptomycin. On the day of assay, cells were resuspended in RPMI 1640 media supplemented with 10% fetal bovine serum, 2 mM Glutamine, and 1× Penicillin/Streptomycin and plated in 384-well tissue culture plates and treated with compound dilutions in DMSO/media. Plates were incubated at 37° C., 5% CO2 for 48 hours. After 48 hours, Celltiter-Glo® (Promega) was added to each well and luciferase signal was quantified using Tecan Infinite M1000 Pro for cell viability determination.
(§1) For chemical structures that include one or more stereoisomers, but are illustrated without indicating stereochemistry, the assay data refers to a mixture of stereoisomers.
(In ATP-based viability assays light output follows the ATP content of the culture.)

The subject of series [3] is PD1-ss+10aa/Gaussia Luciferase. Kind of series: Dox-Induced PD1-ss-Gluc Assay. The format is cell-based. The note with it: 24 hr Dox induction, 293FRT/TO cells, read-out: 24 hr Dox Inducible PD1ssGluc 293FRT/TO: Mean IC50.
Excerpt: Flp-In 293 T-REx™ cells were transfected with pcDNA™5/FRT/TO plasmid inserted with cDNA encoding Gaussia Luciferase fused to the 3′ end of cDNA encoding PD1 signal sequence plus 10 amino acids (N-[…]-C) (SEQ ID NO: 1). Transfected cells were selected for resistance to the selectable markers Hygromycin and Blasticidin to create a stable cell line that contained the PD1-ss+10aa/Gaussia Luciferase cDNA insert whose expression was regulated under the T-REx™ system. The day before assay, cells were trypsinized and plated in 384-well tissue culture plates. The next day, compound dilutions in DMSO/media containing doxycycline were added to the wells and incubated at 37° C., 5% CO2.
as §1

A short description of series [4]: Liver Microsome Stability Assay (rat). The note with it: rat liver microsomes, with NADPH, 1.0 uM compound.
Method: as §3
Series [5] in a line: Liver Microsome Stability Assay (monkey). The following applies: monkey liver microsomes, with NADPH, 1.0 uM compound.
Method: as §3
Series [6] in a line: Liver Microsome Stability Assay (human). The note with it: human liver microsomes, with NADPH, 1.0 uM compound.
Method: as §3
For series [7], the system named is IL-2-FL/Gaussia Luciferase. The experiment in a line: Dox Induced IL2-FL-Gluc Assay. The format is cell-based. The note with it: for IC50: 24 hr Dox induction, 293FRT/TO cells, read-out: 24 hr Dox Inducible IL2FLGluc 293FRT/TO: Mean IC50; for 24 hr Dox Inducible IL2FLGluc 293FRT/TO: IL2/PD1: ratio of IL2FLGluc IC50 to PD1ssGluc IC50.
Excerpt: (§2) Flp-In 293 T-REx™ cells were transfected with pcDNA™5/FRT/TO plasmid inserted with cDNA encoding Gaussia Luciferase fused to the 3′ end of cDNA encoding full length IL-2 (amino acids 1-153). Transfected cells were selected for resistance to the selectable markers Hygromycin and Blasticidin to create a stable cell line that contained the IL-2-FL/Gaussia Luciferase cDNA insert whose expression was regulated under the T-REx™ system. The day before assay, cells were trypsinized and plated in 384-well tissue culture plates. The next day, compound dilutions in DMSO/media containing doxycycline were added to the wells and incubated at 37° C., 5% CO2.
as §1

In series [8] the test system is multiple myeloma cell line U266B1. Kind of series: U266 Cell Viability Assay. Type of series: cell-based, human. The following applies: Homo sapiens, U-266, 48 h, U266B1 cells, Celltiter-Glo. On the procedure:
The human multiple myeloma cell line U266B1 was cultured in RPMI 1640 media supplemented with 10% fetal bovine serum, 2 mM Glutamine, and 1× Penicillin/Streptomycin. Cells were plated in 384-well tissue culture plates and treated with compound dilutions in DMSO/media. Plates were incubated at 37° C., 5% CO2 for 48 hours. After 48 hours, Celltiter-Glo® (Promega) was added to each well and luciferase signal was quantified using Tecan Infinite M1000 Pro for cell viability determination.
as §1

Series [9] deals with TNFα-FL/Gaussia Luciferase. Kind of series: Dox Induced TNFα-FL-Gluc Assay. The format is cell-based.
Excerpt: as §2, with “TNFα” for “IL-2”, “1-233).” for “1-153).”, “TNFα-FL/Gaussia” for “IL-2-FL/Gaussia”
as §1

The mark [10] stands for this setting: '<=>' given where both are I.A.

Data on ten compounds can be found in patent US20230286973A1, “PROTEIN SECRETION INHIBITORS” (KEZAR LIFE SCIENCES, priority 2020, published 2023).

Structures are written as SMILES. Values joined by “and” are separate entries in the source; they are usually repeats but may differ in a detail not shown here. Identical values can stand only once. Like-named read-outs stand apart in the source and are kept apart here.

In general, EC50 refers to the midpoint of the concentration-response curve. As to `O=C(Nc1nc([C@H]2CCCN2c2ccc(-c3ncco3)cc2)cs1)c1cccn1Cc1ccncc1` [Compound A9, (R)-N-(4-(1-(4-(oxazol-2-yl)phenyl)pyrrolidin-2-yl)thiazol-2-yl)-1-(pyridin-4-ylmethyl)-1H-pyrrole-2-carboxamide], the “Liver Microsome Stability (Multiple Species): Mouse - % Remaining after 30 min w/NADPH” value in series [1] stood at 19.8%. The EC50 in [2] (Homo sapiens, NCI-H929, 48 h) was 0.519 µM; in [8], over 25 µM. The IC50 in [3] stood at 0.00722 µM; in series [7] it was 0.0171 µM. For the same compound, the “Liver Microsome Stability (Multiple Species): Rat - % Remaining after 30 min w/NADPH” value in series [4] is 0.8%. Moreover, the “Liver Microsome Stability (Multiple Species): Monkey - % Remaining after 30 min w/NADPH” value in [5] is reported as 0.23%. In series [6], the “Liver Microsome Stability (Multiple Species): Human - % Remaining after 30 min w/NADPH” value came to 0.71%. For the same compound, in [7], the “24 hr Dox Inducible IL2FLGluc 293FRT/TO: IL2/PD1” value turned out to be 2.4.
Regarding `O=C(O)c1ccc(N2CCC[C@@H]2c2csc(NC(=O)c3cccn3Cc3ccncc3)n2)cc1` [Compound A13], the “Liver Microsome Stability (Multiple Species): Mouse - % Remaining after 30 min w/NADPH” value in series [1] turned out to be 6.8%. The EC50 was over 25 µM in series [2] (Homo sapiens, NCI-H929, 48 h) and over 25 µM in series [8]. Besides, the IC50 is 20.7 µM in [3] and over 25 µM in [7]. The “Liver Microsome Stability (Multiple Species): Rat - % Remaining after 30 min w/NADPH” value in series [4] is 5.37%. Moreover, the “Liver Microsome Stability (Multiple Species): Monkey - % Remaining after 30 min w/NADPH” value in [5] is 0.39%. For the same compound, the “Liver Microsome Stability (Multiple Species): Human - % Remaining after 30 min w/NADPH” value in series [6] was found to be 1.91%. Also, the “24 hr Dox Inducible IL2FLGluc 293FRT/TO: IL2/PD1” value in series [7] was over 1.2.
For `CC1=NC(C)(/C=C/c2csc(NC(=O)c3cccn3Cc3ccncc3)n2)CO1` (stereo not shown) [Compound B16], the “Liver Microsome Stability (Multiple Species): Mouse - % Remaining after 30 min w/NADPH” value in series [1] was 196%. The EC50 in series [2] (Homo sapiens, NCI-H929, 48 h) was over 25 µM; in [8], over 25 µM. Moreover, the IC50 in series [3] is 3.99 µM; in series [7], over 25 µM. The “Liver Microsome Stability (Multiple Species): Rat - % Remaining after 30 min w/NADPH” value in series [4] is 137%. In series [5], the “Liver Microsome Stability (Multiple Species): Monkey - % Remaining after 30 min w/NADPH” value amounted to 110%. Moreover, the “24 hr Dox Inducible IL2FLGluc 293FRT/TO: IL2/PD1” value in [7] is recorded as over 6.3.
Take `O=C(Nc1nc([C@H]2CCCN2c2ccccc2)cs1)c1cccn1CC1CCC(F)(F)CC1` [Compound C21, (R)-1-((4,4-difluorocyclohexyl)methyl)-N-(4-(1-phenylpyrrolidin-2-yl)thiazol-2-yl)-1H-pyrrole-2-carboxamide]: the “Liver Microsome Stability (Multiple Species): Mouse - % Remaining after 30 min w/NADPH” value in series [1] turned out to be 60.5%. Moreover, the EC50 in series [2] (Homo sapiens, NCI-H929, 48 h) is over 25 µM; in [8], over 25 µM. Besides, the IC50 in [3] (mean) and in [7] (mean) was over 25 µM each time. In [4], the “Liver Microsome Stability (Multiple Species): Rat - % Remaining after 30 min w/NADPH” value was 12.2%. Further, the “Liver Microsome Stability (Multiple Species): Monkey - % Remaining after 30 min w/NADPH” value in series [5] was 49%. For the same compound, the “Liver Microsome Stability (Multiple Species): Human - % Remaining after 30 min w/NADPH” value in series [6] turned out to be 64%.
On to `CO[C@@H](CC#N)Cn1cccc1C(=O)Nc1nc([C@H]2CCCN2c2ccccc2)cs1` [Compound C97, 1-((S)-3-cyano-2-methoxypropyl)-N-(4-((R)-1-phenylpyrrolidin-2-yl)thiazol-2-yl)-1H-pyrrole-2-carboxamide], for which the “Liver Microsome Stability (Multiple Species): Mouse - % Remaining after 30 min w/NADPH” value in [1] is 3.9% and 3.33%. Also, the EC50 in [2] (Homo sapiens, NCI-H929, 48 h) was 25 µM; in series [2] (48 hr), 23.6 µM; in series [8], over 25 µM. Moreover, the IC50 was 3 µM and 4.65 µM in series [3] (mean); over 25 µM in series [9] (24 hr Dox induction, 293FRT/TO cells, mean, read-out: 24 hr Dox Inducible TNFaFLGluc 293FRT/TO: Mean IC50). Besides, the “Liver Microsome Stability (Multiple Species): Rat - % Remaining after 30 min w/NADPH” value in series [4] is 5.97% and 7.43%. Moreover, the “Liver Microsome Stability (Multiple Species): Human - % Remaining after 30 min w/NADPH” value in [6] is 4.81% and 6.52%. Also, in [7] (setting [10]), the “24 hr Dox Inducible IL2FLGluc 293FRT/TO: IL2/PD1” value was 2.1 and > 3.6. The “24 hr Dox Inducible TNFaFLGluc 293FRT/TO: TNF/PD1” value in [9] (ratio of TNFaFLGluc IC50 to PD1ssGluc IC50, '<=>' given where both are I.A.) was > 8.34 and > 5.37.
On to `O=C(Nc1nc([C@H]2CCCN2c2ccccc2)cs1)c1cccn1Cc1ccnc(F)c1` [Compound E26, (R)-1-((2-fluoropyridin-4-yl)methyl)-N-(4-(1-phenylpyrrolidin-2-yl)thiazol-2-yl)-1H-pyrrole-2-carboxamide], for which the concentration giving a half-maximal response (EC50) in series [2] (Homo sapiens, NCI-H929, 48 h) is 0.762 µM; in [8] it was over 25 µM. For the same compound, the values for the IC50 in series [3] (mean) and in series [7] (mean) were 0.00953 µM and 0.0229 µM, respectively. The “24 hr Dox Inducible IL2FLGluc 293FRT/TO: IL2/PD1” value in series [7] (setting [10]) is given as 2.4.
On to `O=C(Nc1nc([C@H]2CCCN2C2COC2)cs1)c1cccn1Cc1ccncc1` [Compound E49, (R)-N-(4-(1-(oxetan-3-yl)pyrrolidin-2-yl)thiazol-2-yl)-1-(pyridin-4-ylmethyl)-1H-pyrrole-2-carboxamide], for which the “Liver Microsome Stability (Multiple Species): Mouse - % Remaining after 30 min w/NADPH” value in series [1] is on record as 1.59%. In series [4], the “Liver Microsome Stability (Multiple Species): Rat - % Remaining after 30 min w/NADPH” value was determined as 1.92%. The “Liver Microsome Stability (Multiple Species): Monkey - % Remaining after 30 min w/NADPH” value in [5] turned out to be 0.09%. Further, the “Liver Microsome Stability (Multiple Species): Human - % Remaining after 30 min w/NADPH” value in series [6] is on record as 0.09%.
On to `O=C(NC/C=C/c1csc(NC(=O)c2cccn2Cc2ccncc2)n1)c1ccccc1` [Compound E54, (E)-N-(4-(3-benzamidoprop-1-en-1-yl)thiazol-2-yl)-1-(pyridin-4-ylmethyl)-1H-pyrrole-2-carboxamide], for which, in series [1], the “Liver Microsome Stability (Multiple Species): Mouse - % Remaining after 30 min w/NADPH” value turned out to be 1.05%. For the same compound, the “Liver Microsome Stability (Multiple Species): Rat - % Remaining after 30 min w/NADPH” value in series [4] is recorded as 6.61%. The “Liver Microsome Stability (Multiple Species): Monkey - % Remaining after 30 min w/NADPH” value in series [5] is given as 0.17%. For the same compound, in series [6], the “Liver Microsome Stability (Multiple Species): Human - % Remaining after 30 min w/NADPH” value was determined as 0.37%.
Consider `CC(C)c1cccnc1/C=C/c1csc(NC(=O)c2cccn2Cc2ccncc2)n1` [Compound E56, (E)-N-(4-(2-(3-isopropylpyridin-2-yl)vinyl)thiazol-2-yl)-1-(pyridin-4-ylmethyl)-1H-pyrrole-2-carboxamide], for which the EC50 in series [2] (Homo sapiens, NCI-H929, 48 h) is 21.5 µM; in [8], over 25 µM. The results for the IC50 in [3] (mean) and in [7] (mean) were 0.0916 µM and 4.36 µM, respectively. The “24 hr Dox Inducible IL2FLGluc 293FRT/TO: IL2/PD1” value in series [7] (setting [10]) is given as 48.
In the case of `CC(C)c1ccc(/C=C/c2csc(NC(=O)c3cccn3Cc3ccncc3)n2)nc1` [Compound E57, (E)-N-(4-(2-(5-isopropylpyridin-2-yl)vinyl)thiazol-2-yl)-1-(pyridin-4-ylmethyl)-1H-pyrrole-2-carboxamide], the EC50 in [2] (Homo sapiens, NCI-H929, 48 h) is 6.9 µM; in [8], 9.51 µM. Besides, the values for the IC50 in series [3] (mean) and in series [7] (mean) were 0.00967 µM and 2.16 µM, respectively. Moreover, the “24 hr Dox Inducible IL2FLGluc 293FRT/TO: IL2/PD1” value in series [7] (setting [10]) was 220.
